This is an account of results in paper PMC7026885, “Macrofilaricidal Benzimidazole–Benzoxaborole Hybrids as an Approach to the Treatment of River Blindness: Part 1. Amide Linked Analogs” (ACS Infectious Diseases, 2019).

The structures appear in SMILES notation. Read-outs that look alike come from different tables or passages of the source.

The subject of one data set is Litomosoides sigmodontis. In words: Litomosoides sigmodontis natural infection in vivo model. To be noted: L. sigmodontis, necropsy day 63, QD. How it is done:
We characterized the in vitro ADME properties of 8a in preparation for evaluation of this compound in our primary in vivo model in gerbils. […] We were pleased to find that 8a was able to kill 100% of both male and female worms in the gerbil peritoneum when dosed subcutaneously at 100 mg/kg/day for 14 days as a suspension in a nonsolubilizing HEC/Tween vehicle. […] The subsequent assessment of the pharmacokinetics of 8a from these two dosing paradigms provided an interesting observation that we believe to be important in understanding the PK–PD requirements for achieving efficacy in this animal model. […] We had made the same observation in a positive control group using flubendazole at a subcutaneous dose of 10 mg/kg/day for 5 days in the nonsolubilizing HEC/Tween vehicle, namely, that plasma levels of flubendazole were maintained above the in vitro IC50 (4 nM) for over 42 days, consistent with data reported in the literature.[43] […] We next examined 8a in two additional in vivo models, the first where L3 B. pahangi larvae were injected into the peritoneum of gerbils and allowed to develop into adult worms[45] and a second where gerbils were naturally infected by the filarial nematode Litomosoides sigmodontis.[46],[47] In both of these models, 8a was administered subcutaneously at 100 mg/kg for 14 days or orally at 100 mg/kg for 28 days as a suspension. […] Additionally, when plasma obtained from treated animals at necropsy was analyzed for 8a, we observed an outcome similar to that observed in the adult implantation model, e.g., that measurable levels were present at this time point in the subcutaneous-dosed groups but not in the orally dosed groups, weeks after administration of the drug. In a final L. sigmodontis experiment with 8a, we dosed the compound subcutaneously at 300 mg/kg for 7 days as a suspension. […]
administered their doses at the same time each day and are allowed to feed and drink ad libitum. Gerbils were euthanized following approved institutional protocols. Euthanized animals were weighed and examined for external and visceral pathologies.
The adult Brugia worms were recovered by opening the body cavity and washing the peritoneal cavity with 100 mL of phosphate buffered saline. Male and female worms were counted using a
Litomosoides sigmodontis natural infection in vivo model
All animal experiments with L. sigmodontis were conducted at the Institute for Medical Microbiology, Immunology and Parasitology
(IMMIP), University Hospital of Bonn, in accordance to the European Union animal welfare guidelines. All protocols were approved by the local authorities (Landesamt für Natur, Umwelt […]
from Janvier (Saint-Berthevin, France) and were housed at the animal facility of the IMMIP in individually ventilated cages on a 12h light/dark cycle with food and water ad libidum. Mice were infected at 6-8 weeks of age via exposure to the natural mite vector Ornithonyssus bacoti containing infectious L. sigmodontis
L3 larvae. To compare the infection, the same batch of mite-containing bedding was used to infect all animals of one experiment. 35 days post infection, a time point adult worms have developed within the thoracic cavity, mice were treated per oral gavage with the test compounds at concentrations indicated in the result section. As a vehicle, 1% CMC + 0.1% Tween80 was used. Negative controls were treated with vehicle and as positive control, mice were treated orally with doxycycline
(Sigma) in 10% DMSO/1xPBS. Necropsies were performed at 64-77

The nature of data set [1]: MDR1-MDCK monolayer permeability assay. Type of data set: in vitro ADME. To be noted: dog. How it is done: (§1) We characterized the in vitro ADME properties of 8a in preparation for evaluation of this compound in our primary in vivo model in gerbils. […] We were pleased to find that 8a was able to kill 100% of both male and female worms in the gerbil peritoneum when dosed subcutaneously at 100 mg/kg/day for 14 days as a suspension in a nonsolubilizing HEC/Tween vehicle. […] The subsequent assessment of the pharmacokinetics of 8a from these two dosing paradigms provided an interesting observation that we believe to be important in understanding the PK–PD requirements for achieving efficacy in this animal model. […] We had made the same observation in a positive control group using flubendazole at a subcutaneous dose of 10 mg/kg/day for 5 days in the nonsolubilizing HEC/Tween vehicle, namely, that plasma levels of flubendazole were maintained above the in vitro IC50 (4 nM) for over 42 days, consistent with data reported in the literature.[43] […] We next examined 8a in two additional in vivo models, the first where L3 B. pahangi larvae were injected into the peritoneum of gerbils and allowed to develop into adult worms[45] and a second where gerbils were naturally infected by the filarial nematode Litomosoides sigmodontis.[46],[47] In both of these models, 8a was administered subcutaneously at 100 mg/kg for 14 days or orally at 100 mg/kg for 28 days as a suspension. […] Additionally, when plasma obtained from treated animals at necropsy was analyzed for 8a, we observed an outcome similar to that observed in the adult implantation model, e.g., that measurable levels were present at this time point in the subcutaneous-dosed groups but not in the orally dosed groups, weeks after administration of the drug. In a final L. sigmodontis experiment with 8a, we dosed the compound subcutaneously at 300 mg/kg for 7 days as a suspension.

A further data set has as its system Brugia pahangi. In words: Brugia pahangi L3 injection in vivo model in gerbils. To be noted: B. pahangi, necropsy day 63, QD. How it is done: as §1
Plates were incubated at 37 °C in a 5% CO2 incubator for 6 days, then molting was assessed visually using an inverted microscope. Molting was determined in each well by counting the presence of fourth stage larvae (L4s) and empty casts of L3s.
The percent inhibition of molting was calculated based on the number of treated larvae that were able to molt in comparison to the number of control larvae that had successfully molted. IC50 values were calculated using GraphPad Prism v6.0
(http://www.graphpad.com). See Bullman et al., PLoS Negl. Trop.
Adult Brugia malayi transplantation in vivo model procedure.
Gerbils (Meriones unguiculatus) were infected by transplantation of 10 male and 10 female adult Brugia malayi into the peritoneal cavity. Gerbils were acclimated for 7 days prior to treatment. Animals were dosed based on their body weight prior to each dosing. Animals were administered their doses at the same time each day and receive standard rodent laboratory diet and water ad libitum. Gerbils were humanely euthanized at the conclusion of each study. Peritoneal counts of male and female adult B. malayi and visual condition of the peritoneum were recorded.
Brugia pahangi L3 injection in vivo model procedure 8. […]
(Filariatech, Inc., Athens, GA). […] All gerbils were dosed in accordance with their body weight determined prior to each dosing. […]
The adult Brugia worms were recovered by opening the body cavity and washing the peritoneal cavity with 100 mL of phosphate buffered saline. Male and female worms were counted using a […]

Where [2] appears, read: 100 mg/kg × 28 days, PO (suspension).
Where [3] appears, read: 300 mg/kg × 7 days, SC (suspension).

On to `COC(=O)Nc1nc2cc(C(=O)NCc3ccc4c(c3)B(O)OC4(C)C)ccc2[nH]1` [8a], for which the adult worm reduction result is “–135.3%” with Litomosoides sigmodontis (setting [2]); 100%/100% in the data set with Litomosoides sigmodontis (setting [3]); 100% in the data set on Brugia pahangi (100 mg/kg × 14 days, SC (suspension)); 24% with Brugia pahangi (setting [2]). Moreover, the “animals with no worms” value in the data set with Litomosoides sigmodontis (setting [2]) is given as 0%; in the data set with Litomosoides sigmodontis (setting [3]), 100%/100%; with Brugia pahangi (setting [2]), 0%. The same compound returned a Papp A→B in data set [1] of 0.8 ×10⁻⁶ cm/s.
In the case of `COC(=O)Nc1nc2cc(C(=O)c3ccc(F)cc3)ccc2[nH]1` [compound 1, Flubendazole, reference compound], in the data set with Litomosoides sigmodontis (10 mg/kg × 5 days, SC), the adult worm reduction amounted to 100%/100% and the “animals with no worms” value came out at 100%/100%. Besides, the Papp A→B in data set [1] (A-B, Table 1, read-out: MDCK-MDR1 Papp (A-B)) was 15.6 ×10⁻⁶ cm/s. Also, in the data set on Brugia pahangi (10 mg/kg × 5 days, SC), the adult worm reduction is given as 100%/100% and the “animals with no worms” value amounted to 100%/100%.
